In one experiment the target is Prothrombin (Bos taurus, UniProt P00735). As to the kind of experiment: Binding affinity was determined against bovine thrombin.
In the case of `NNC(N)c1ccc(C[C@H](NS(=O)(=O)c2ccc3ccccc3c2)C(=O)N2CCCCCC2)cc1` (stereo partly specified), the Ki turned out to be 1.5 nM.

With `NNC(N)c1ccc(C[C@@H](NC(=O)CNS(=O)(=O)c2ccc3ccccc3c2)C(=O)N2CCCCC2)cc1` (stereo partly specified), affinity was put at a Ki of 4320 nM. Molecule `CNC(N)c1ccc(C[C@H](NS(=O)(=O)c2ccc3ccccc3c2)C(=O)N2CCCCCC2)cc1` (stereo partly specified) yielded a Ki of 45.5 nM. Turning to `CCCCN(C)C(=O)[C@H](Cc1ccc(C(N)NN)cc1)NS(=O)(=O)c1ccc2ccccc2c1` (stereo partly specified), the Ki turned out to be 41 nM. Molecule `CN(C(=O)[C@H](Cc1ccc(C(N)NN)cc1)NS(=O)(=O)c1ccc2ccccc2c1)C1CC1` (stereo partly specified) yielded a Ki of 247 nM. Same read-out and setting: the same measure for `NC(N)c1ccc(C[C@H](NS(=O)(=O)c2ccc3ccccc3c2)C(=O)N2CCCCCC2)cc1`: 52.4 nM; for `CNC(N)c1ccc(C[C@@H](NC(=O)CNS(=O)(=O)c2ccc3ccccc3c2)C(=O)N2CCCCC2)cc1` (stereo partly specified): 5370 nM. Regarding `NC(N)c1ccc(C[C@@H](NC(=O)CNS(=O)(=O)c2ccc3ccccc3c2)C(=O)N2CCCCC2)cc1`, the Ki came out at 6.5 nM. Still for that read-out and setting: the same measure for `CN(C(=O)[C@H](Cc1ccc(C(N)NN)cc1)NS(=O)(=O)c1ccc2ccccc2c1)C1CCCCC1` (stereo partly specified): 152 nM. On the same count and under the same terms, under `CN(C(=O)[C@H](Cc1ccc(C(N)NN)cc1)NS(=O)(=O)c1ccc2ccccc2c1)C1CCCC1` (stereo partly specified) stands 1.1 nM.

In another experiment the target is Prothrombin (Homo sapiens, UniProt P00734). As to the kind of experiment: Binding affinity was determined against human thrombin.
In turn, `CN(C)c1cccc2c(S(=O)(=O)N[C@@H](Cc3ccc(C(N)NN)cc3)C(=O)N(C)C3CCCC3)cccc12` (stereo partly specified) gave a Ki of 0.3 nM. On to `CN(C(=O)[C@H](Cc1ccc(CCN)cc1)NS(=O)(=O)c1ccc2ccccc2c1)C1CCCC1`, for which the Ki came out at 3.3 nM. Molecule `CN(C(=O)[C@H](Cc1ccc(C(N)NN)cc1)NS(=O)(=O)c1ccc2c(c1)CCCCC2)C1CCCC1` (stereo partly specified) came in with a Ki of 0.045 nM. `CN(C(=O)[C@H](Cc1ccc(C(N)NN)cc1)NS(=O)(=O)c1cccc2c1CCCC2)C1CCCC1` (stereo partly specified) displayed a Ki of 3.8 nM. On the same count and under the same terms, the same measure for `CN(C(=O)[C@H](Cc1ccc(C(N)NN)cc1)NS(=O)(=O)c1ccc2c(c1)CCCC2)C1CCCC1` (stereo partly specified): 0.12 nM; for `CN(C(=O)[C@H](Cc1ccc(C(N)NN)cc1)NS(=O)(=O)Cc1ccccc1)C1CCCC1` (stereo partly specified): 18.4 nM; for `CS(=O)(=O)N1CCN(C(=O)[C@H](Cc2ccc(C(N)NN)cc2)NS(=O)(=O)c2ccc3ccccc3c2)CC1` (stereo partly specified): 11 nM. Take `CCOC(=O)N1CCN(C(=O)[C@H](Cc2ccc(C(N)NN)cc2)NS(=O)(=O)c2ccc3ccccc3c2)CC1` (stereo partly specified): the affinity, expressed as Ki, was 3300 nM.

With `CN(C(=O)[C@H](Cc1ccc(C(N)NN)cc1)NS(=O)(=O)c1ccc2ccccc2c1)C1CCCC1` (stereo partly specified), the Ki is 0.38 nM. In the case of `CN(C(=O)[C@H](Cc1ccc(C(N)NN)cc1)NS(=O)(=O)c1cccc2ccccc12)C1CCCC1` (stereo partly specified), the affinity corresponds to a Ki of 8 nM. `CN(C(=O)[C@H](Cc1ccc(C(N)NN)cc1)NS(=O)(=O)c1ccc2cc3ccccc3cc2c1)C1CCCC1` (stereo partly specified) showed an inhibition constant (Ki) of 0.1 nM.

Source of the values: ChEMBL document CHEMBL1134382, “Estimation of binding affinities for selective thrombin inhibitors via Monte Carlo simulations” (J Med Chem, 2001).
